According to ChEMBL document CHEMBL1201862, “PubChem BioAssay data set” (2004):
Calls of active or inactive are those of the source.

Tests used:
[1] = Luminescence Cell-Based Dose Retest to Confirm Inhibitors of Cancer Stem Cells. [Related pubchem assays (depositor defined):AID2717, AID2721]; assay type: functional; details: Homo sapiens
[2] = HEK-293T viability loss after treatment – luminescence, T-cell screen hits, cytotoxicity control for TCR NF-kB inhibitor project, dose response (AID 489026); assay type: functional, cell-based;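 note: cells exposed to compound about 14 hours before the viability readout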
[3] = target: Eukaryotic translation initiation factor 4E (Mus musculus, UniProt P63073); experiment: blockers of eIF4G binding by eIF4E – biochemical, TR-FRET, dose response (AID 855); assay type: functional;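 note: potency for disrupting eIF4E binding to eIF4GI seen as loss of FRET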
Eukaryotic translation initiation factor 4E, sequence (P63073 whole entry): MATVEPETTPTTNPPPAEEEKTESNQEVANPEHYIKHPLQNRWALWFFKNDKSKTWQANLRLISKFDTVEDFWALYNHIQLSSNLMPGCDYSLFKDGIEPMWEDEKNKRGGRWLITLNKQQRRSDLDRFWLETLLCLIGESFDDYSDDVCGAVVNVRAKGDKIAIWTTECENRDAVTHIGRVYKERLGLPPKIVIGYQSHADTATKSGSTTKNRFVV

[4] = A cytotoxicity screen of small molecule inhibitors of the PhoP region in Salmonella typhi identified in the primary screen. [Related pubchem assays: 1850, 1864, 1985 ]; assay type: functional
[5] = A High Throughput Confirmatory Assay used to Identify Novel Compounds that Inhibit Mycobacterium Tuberculosis in the absence of Glycerol.; assay type: functional
[6] = target: T1, Protein RecA (Mycobacterium tuberculosis, UniProt P9WHJ3); experiment: Fluorescence Cell-Free Homogeneous Dose Retest to Identify Inhibitors of RecA-Intein Splicing Activity. [Related pubchem assays (depositor defined):AID2097, AID2223, AID489010, AID492950]; assay type: functional
T1 sequence (P9WHJ3 whole entry): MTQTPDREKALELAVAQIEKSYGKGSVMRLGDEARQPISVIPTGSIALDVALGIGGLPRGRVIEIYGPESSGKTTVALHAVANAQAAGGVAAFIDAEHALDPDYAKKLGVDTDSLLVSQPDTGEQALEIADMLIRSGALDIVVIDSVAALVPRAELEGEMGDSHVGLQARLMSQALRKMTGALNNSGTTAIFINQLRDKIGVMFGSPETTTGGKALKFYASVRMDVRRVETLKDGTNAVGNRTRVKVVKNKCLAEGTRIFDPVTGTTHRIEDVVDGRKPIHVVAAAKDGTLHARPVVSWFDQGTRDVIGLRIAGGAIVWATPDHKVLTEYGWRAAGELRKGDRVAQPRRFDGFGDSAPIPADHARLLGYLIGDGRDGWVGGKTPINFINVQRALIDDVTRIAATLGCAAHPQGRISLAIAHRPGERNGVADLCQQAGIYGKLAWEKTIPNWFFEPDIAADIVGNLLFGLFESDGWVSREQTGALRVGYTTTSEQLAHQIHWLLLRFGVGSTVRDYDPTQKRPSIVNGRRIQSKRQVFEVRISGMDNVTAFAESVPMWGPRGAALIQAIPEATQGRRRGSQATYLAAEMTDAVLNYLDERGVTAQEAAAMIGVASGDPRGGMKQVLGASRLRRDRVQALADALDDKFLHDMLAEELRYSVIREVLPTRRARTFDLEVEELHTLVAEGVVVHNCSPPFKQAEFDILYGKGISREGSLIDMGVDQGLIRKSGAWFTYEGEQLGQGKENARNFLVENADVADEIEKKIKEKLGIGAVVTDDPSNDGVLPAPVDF

[7] = target: T2, Replicative DNA helicase DnaB (Mycobacterium tuberculosis, UniProt P9WMR3); experiment: DnaB intein splicing inhibitors, dose response, biochemical, cell-free fluorescence (AID 449749); assay type: functional
T2 sequence (P9WMR3 whole entry): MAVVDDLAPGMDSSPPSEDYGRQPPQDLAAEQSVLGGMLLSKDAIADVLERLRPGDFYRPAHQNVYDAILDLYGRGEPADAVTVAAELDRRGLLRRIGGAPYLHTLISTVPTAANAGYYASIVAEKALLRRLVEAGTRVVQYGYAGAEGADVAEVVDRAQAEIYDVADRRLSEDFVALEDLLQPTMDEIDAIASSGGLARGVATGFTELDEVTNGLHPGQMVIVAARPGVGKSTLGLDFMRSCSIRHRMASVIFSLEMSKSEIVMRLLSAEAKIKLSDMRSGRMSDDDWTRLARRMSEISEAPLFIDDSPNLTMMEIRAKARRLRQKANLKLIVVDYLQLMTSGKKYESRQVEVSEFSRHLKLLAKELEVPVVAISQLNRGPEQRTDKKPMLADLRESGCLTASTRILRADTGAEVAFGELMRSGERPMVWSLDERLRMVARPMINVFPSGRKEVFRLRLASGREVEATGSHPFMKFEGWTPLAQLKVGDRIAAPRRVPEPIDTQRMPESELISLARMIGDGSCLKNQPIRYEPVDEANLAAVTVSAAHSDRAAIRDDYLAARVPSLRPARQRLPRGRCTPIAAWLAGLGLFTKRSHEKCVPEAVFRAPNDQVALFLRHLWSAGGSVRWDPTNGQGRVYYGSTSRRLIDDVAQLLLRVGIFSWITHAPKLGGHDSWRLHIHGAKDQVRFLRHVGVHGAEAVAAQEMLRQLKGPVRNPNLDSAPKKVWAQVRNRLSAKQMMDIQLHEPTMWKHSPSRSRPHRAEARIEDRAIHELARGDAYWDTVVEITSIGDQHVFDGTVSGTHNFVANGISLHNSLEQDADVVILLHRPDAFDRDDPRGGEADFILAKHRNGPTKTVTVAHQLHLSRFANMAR

[8] = system: BJ; experiment: cells; assay type: functional, cell-based; details: Homo sapiens
[9] = system: BJ; experiment: BJ-TERT-LT-ST fibroblast viability loss – cell-based, RAS-independent, luminescence, dose response (AID 1935); assay type: functional; details: Homo sapiens;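 note: BJ fibroblasts immortalized with TERT plus LT and ST oncogenes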
[10] = DRD fibroblast viability loss – cell-based, non-viral oncogenic, luminescence, dose response (AID 1934); assay type: functional; details: Homo sapiens
[11] = system: BJ; experiment: BJ-TERT fibroblast viability loss – cell-based, RAS-independent, luminescence, dose response (AID 1933); assay type: functional; details: Homo sapiens
[12] = target: T3, Lysosomal acid glucosylceramidase (Homo sapiens, UniProt P04062); experiment: Dose response cell-based high throughput screening assay to identify enhancers of beta-glucosidase activity. [Related pubchem assays: 784 ]; assay type: functional
T3 sequence (P04062 whole entry): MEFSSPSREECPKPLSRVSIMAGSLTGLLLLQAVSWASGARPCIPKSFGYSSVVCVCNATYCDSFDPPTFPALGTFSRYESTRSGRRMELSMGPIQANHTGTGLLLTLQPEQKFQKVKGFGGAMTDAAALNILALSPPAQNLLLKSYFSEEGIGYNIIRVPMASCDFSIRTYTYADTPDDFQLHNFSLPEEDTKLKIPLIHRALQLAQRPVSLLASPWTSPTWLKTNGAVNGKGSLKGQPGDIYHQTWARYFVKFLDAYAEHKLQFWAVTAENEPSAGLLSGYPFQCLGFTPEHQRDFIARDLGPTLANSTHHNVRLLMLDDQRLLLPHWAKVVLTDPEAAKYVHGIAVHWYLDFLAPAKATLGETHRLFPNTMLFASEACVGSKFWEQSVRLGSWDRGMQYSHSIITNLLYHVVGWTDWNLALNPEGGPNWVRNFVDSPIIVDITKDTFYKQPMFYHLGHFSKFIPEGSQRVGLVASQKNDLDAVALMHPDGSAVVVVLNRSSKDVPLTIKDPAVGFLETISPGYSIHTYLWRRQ

[13] = microbe, parasite or virus in culture; assay type: functional; details: Mycobacterium tuberculosis
[14] = target: Cytochrome P450 2C19 (Homo sapiens, UniProt P33261); experiment: Cytochrome panel assay with activity outcomes. Panel member name: p450-cyp2c19 Compounds with AC50 equal or less than 10 uM are considered active; assay type: functional; details: read-out: AC50
Cytochrome P450 2C19, sequence (P33261 whole entry): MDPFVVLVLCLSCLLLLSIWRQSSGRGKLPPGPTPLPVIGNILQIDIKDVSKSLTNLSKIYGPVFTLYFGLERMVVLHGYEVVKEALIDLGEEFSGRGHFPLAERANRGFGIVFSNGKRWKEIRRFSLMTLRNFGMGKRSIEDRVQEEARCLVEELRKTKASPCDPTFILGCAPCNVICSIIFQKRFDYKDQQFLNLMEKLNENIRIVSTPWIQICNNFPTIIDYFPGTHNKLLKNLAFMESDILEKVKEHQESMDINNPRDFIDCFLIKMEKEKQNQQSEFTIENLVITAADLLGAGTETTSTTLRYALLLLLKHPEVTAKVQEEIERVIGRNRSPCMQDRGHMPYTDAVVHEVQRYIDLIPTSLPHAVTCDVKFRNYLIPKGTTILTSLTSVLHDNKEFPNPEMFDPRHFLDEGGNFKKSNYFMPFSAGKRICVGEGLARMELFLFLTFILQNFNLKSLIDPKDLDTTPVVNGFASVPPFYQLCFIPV

[15] = target: Cytochrome P450 3A4 (Homo sapiens, UniProt P08684);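 note: CYP3A4 tested as one member of a cytochrome P450 panel screen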
Cytochrome P450 3A4, sequence (P08684 whole entry): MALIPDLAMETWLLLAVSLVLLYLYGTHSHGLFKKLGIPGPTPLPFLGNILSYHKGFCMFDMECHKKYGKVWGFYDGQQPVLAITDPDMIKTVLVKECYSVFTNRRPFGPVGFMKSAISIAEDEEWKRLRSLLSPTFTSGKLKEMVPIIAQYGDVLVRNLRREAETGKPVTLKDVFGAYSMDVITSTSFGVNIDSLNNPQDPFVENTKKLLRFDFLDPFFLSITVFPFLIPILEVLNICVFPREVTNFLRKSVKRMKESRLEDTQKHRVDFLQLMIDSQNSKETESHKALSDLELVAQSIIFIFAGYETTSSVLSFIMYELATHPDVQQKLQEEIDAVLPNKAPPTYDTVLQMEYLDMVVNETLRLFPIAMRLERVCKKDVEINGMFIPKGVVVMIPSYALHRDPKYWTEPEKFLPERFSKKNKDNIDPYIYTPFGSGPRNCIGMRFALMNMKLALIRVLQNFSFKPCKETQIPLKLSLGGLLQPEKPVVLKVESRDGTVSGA

[16] = target: T4, Cytochrome P450 1A2 (Homo sapiens, UniProt P05177);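 note: PubChem cytochrome P450 panel assay, CYP1A2 panel member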
T4 sequence (P05177 whole entry): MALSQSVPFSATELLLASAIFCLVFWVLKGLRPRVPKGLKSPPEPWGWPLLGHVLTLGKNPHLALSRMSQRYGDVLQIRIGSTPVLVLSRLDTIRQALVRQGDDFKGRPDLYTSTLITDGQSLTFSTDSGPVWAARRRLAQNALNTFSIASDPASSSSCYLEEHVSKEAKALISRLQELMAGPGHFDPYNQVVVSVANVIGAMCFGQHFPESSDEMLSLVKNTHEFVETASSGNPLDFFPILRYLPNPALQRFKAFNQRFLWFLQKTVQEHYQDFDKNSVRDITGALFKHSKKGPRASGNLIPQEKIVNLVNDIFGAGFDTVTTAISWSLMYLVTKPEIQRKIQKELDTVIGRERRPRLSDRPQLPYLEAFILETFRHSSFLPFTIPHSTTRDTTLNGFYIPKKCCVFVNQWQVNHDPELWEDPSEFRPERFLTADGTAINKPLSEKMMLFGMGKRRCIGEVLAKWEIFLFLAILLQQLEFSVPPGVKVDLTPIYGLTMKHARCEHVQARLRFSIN

[17] = blockade of melanocortin 4 receptor signaling – cell-based, plate reader, cherry pick, counter-screen for LGR2 antagonist project, dose response (AID 743444); assay type: functional;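 note: transfected HEK 293 cells stimulated with alpha-MSH peptide; potency of inhibitors of the alpha-MSH evoked signal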
[18] = THP-1 cell cytotoxicity, dose response, cytotoxicity control for non-replicating M. tuberculosis project (AID 489025); assay type: functional
[19] = viability loss in HEK293 cells – cell-based, plate reader, cherry-picked samples, cytotoxicity control, dose response (AID 743446); assay type: functional
[20] = toxicity toward HepG2 liver cells – cell-based, plate reader, cherry-pick, antagonist series, cytotoxicity control, dose response (AID 743416); assay type: functional
[21] = cells; assay type: functional
[22] = A549 cell cytotoxicity, dose response, cytotoxicity control, plate reader, cherry-pick, antagonist series (AID 743412); assay type: functional, cell-based
[23] = blockers of bursicon-stimulated LGR2 cAMP reporter – cell-based, HEK293, CRE-luciferase reporter, cherry pick, set 2, dose response (AID 743343); assay type: functional;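 note: transfected cells were stimulated with diluted bursicon conditioned medium after compound addition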

Compound: COC(=O)Nc1ccc(S(=O)(=O)N2c3ccccc3CCC2C)cc1 (stereo unspecified)
- AC50 [1]: 0.876 µM (active)
- IC50 [2]: > 80 µM (inactive)

Compound: O=C(C1CCN(S(=O)(=O)c2cccnc2)CC1)N1CCN(c2cccc(Cl)c2)CC1
- IC50 [3]: > 64 µM (inactive)

Compound: O=C(CN(Cc1ccco1)C(=O)CNS(=O)(=O)c1ccc(Cl)cc1)NCc1ccc(F)cc1
- EC50 [4]: > 50 µM (active)

Compound: Cc1ccc(-c2ccc(C3C(C#N)=C(N)Oc4[nH]nc(C)c43)o2)cc1 (stereo unspecified)
- IC50 [5]: > 100 µM (active)
- EC50 [6]: 4.25 µM (active)
- AC50 [7]: > 380 µM (inactive)

Compound: CCOc1ccc(S(=O)(=O)NCc2ccccn2)cc1NC(=O)c1ccccc1F
- EC50 [8]: 21.4 µM (active)
- EC50 [9]: 1.79 µM (active)
- EC50 [10]: 12.9 µM (inconclusive)
- EC50 [11]: 2.76 µM (active)
- IC50 [2]: > 80 µM (inactive)

Compound: Cc1cc(C)cc(N2CCN(C(=O)N3CCOCC3)CC2)c1
- EC50 [12]: > 50 µM (not active)

Compound: CC1CCCN(C(=O)Cn2c(=O)oc3cc(S(=O)(=O)N4CCCCC4)ccc32)C1 (stereo unspecified)
- EC50 [4]: > 50 µM (active)

Compound: Cc1c(Cl)cccc1N(CC(=O)O)S(C)(=O)=O
- EC50 [12]: > 50 µM (not active)

Compound: Cc1ccc(NC(=O)C(=O)NNC(=O)c2cccs2)cc1
- EC50 [4]: > 50 µM (active)

Compound: COC(=O)c1ccc(CSc2nc(C(F)(F)F)c3c(c2C#N)CCC3)o1
- IC50 [5]: > 100 µM (active)
- CC50 [13]: > 40 µM (active)

Compound: Cc1ccc(C)c(NC(=O)C2CC(O)CN2C(=O)OC(C)(C)C)c1 (stereo unspecified)
- AC50 [14]: 28.2 µM (inconclusive)
- EC50 [12]: > 50 µM (not active)
- AC50 [15]: 25.1 µM (inconclusive)
- AC50 [16]: 31.6 µM (inconclusive)

Compound: CCOc1ccc(OCCSc2nc3ccccc3[nH]2)cc1
- EC50 [4]: > 50 µM (active)

Compound: O=C(O)CCSc1nnc(SCC(=O)NCC(F)(F)F)s1
- IC50 [3]: > 64 µM (inactive)

Compound: COC(=O)/C=C/C(=O)N1CCN(c2ccccc2C)CC1
- IC50 [3]: > 64 µM (inactive)

Compound: Cc1ccnc(NC(=O)c2cc3ccccc3o2)c1
- IC50 [5]: > 50 µM (active)
- AC50 [17]: 2.06 µM (active)
- CC50 [18]: > 40 µM (active)
- AC50 [19]: 52 µM (active)
- CC50 [13]: > 40 µM (active)
- AC50 [20]: > 52 µM (inactive)
- IC50 [21]: 19.3 µM (active)
- AC50 [22]: 30 µM (active)
- AC50 [23]: 2.27 µM (active)

Compound: O=C(CCS(=O)(=O)c1ccc(Br)cc1)N1CCN(Cc2ccccc2)CC1
- EC50 [12]: > 50 µM (not active)

Compound: C=CCN(C(=O)Cn1nnc2ccccc21)C(C(=O)NCCOC)c1ccc(OC)cc1OC (stereo unspecified)
- EC50 [12]: > 50 µM (not active)
